Key:
[1] = wn = mass fraction of the nth substance listed; details: 101 kPa, Liquid, Vibrating tube method
[2] = refractive index (Na D-line) (dimensionless); wn = mass fraction of the nth substance listed; details: 101 kPa, Liquid, Standard Abbe refractometry

C[P+](c1ccccc1)(c1ccccc1)c1ccccc1.[Br-] [methyltriphenylphosphonium bromide] + CN(CCO)CCO
Details | mass density, w1 = 0.1578 [kg/m3] | mass density, w1 = 0.2306 [kg/m3] | mass density, w1 = 0.2998 [kg/m3] | refractive index, w1 = 0.1578 | refractive index, w1 = 0.2306 | refractive index, w1 = 0.2998
[1], 293.15 K | 1086.84 | 1106.7 | 1124.09 | – | – | –
[1], 298.15 K | 1083.1 | 1102.99 | 1120.4 | – | – | –
[1], 303.15 K | 1079.34 | 1099.26 | 1116.71 | – | – | –
[1], 308.15 K | 1075.59 | 1095.54 | 1113.03 | – | – | –
[1], 313.15 K | 1071.84 | 1091.82 | 1109.36 | – | – | –
[1], 318.15 K | 1068.08 | 1088.09 | 1105.69 | – | – | –
[1], 323.15 K | 1064.32 | 1084.36 | 1102.01 | – | – | –
[1], 328.15 K | 1060.54 | 1080.63 | 1098.34 | – | – | –
[1], 333.15 K | 1056.77 | 1076.9 | 1094.66 | – | – | –
[1], 338.15 K | 1052.98 | 1073.17 | 1090.99 | – | – | –
[1], 343.15 K | 1049.19 | 1069.43 | 1087.31 | – | – | –
[1], 348.15 K | 1045.47 | 1065.72 | 1083.63 | – | – | –
[1], 353.15 K | 1041.65 | 1062.05 | 1080.06 | – | – | –
[2], 293.15 K | – | – | – | 1.49579 | 1.50867 | 1.52077
[2], 298.15 K | – | – | – | 1.49402 | 1.50694 | 1.51904
[2], 303.15 K | – | – | – | 1.49224 | 1.50517 | 1.51732
[2], 308.15 K | – | – | – | 1.49037 | 1.5034 | 1.51557
[2], 313.15 K | – | – | – | 1.48865 | 1.50162 | 1.51383
[2], 318.15 K | – | – | – | 1.4869 | 1.49961 | 1.51212
[2], 323.15 K | – | – | – | 1.48502 | 1.49793 | 1.5103
[2], 328.15 K | – | – | – | 1.48313 | 1.49584 | 1.5083
[2], 333.15 K | – | – | – | 1.48114 | 1.4942 | 1.50644
[2], 338.15 K | – | – | – | 1.47935 | 1.49244 | 1.50466
[2], 343.15 K | – | – | – | 1.47746 | 1.49064 | 1.50288
